Columns and labels:
Type in all cases: cell-based, human
MYB [1] = experiment: HiBiT protein abundance assay, MYB; details: Homo sapiens, K562, 24 h, modified K562 cells
Method: (§1) Compounds described herein were used to screen for effects on quantitative protein abundance using a HiBit assay system (Promega). Quantitative protein abundance was determined by measuring the protein levels of HiBit-tagged protein targets expressed in cell culture via luminescence using the Nano-Glo HiBiT Lytic Detection System, which uses a split complementation assay format to reconstitute NanoBiT enzyme to generate a luminescent signal. A protein abundance assay was developed such that endogenous protein targets could be modified with the HiBiT peptide tag and their abundance could be assessed after compound treatment. Briefly, K562 cell lines containing a HiBiT-modification were treated with various compounds described herein (e.g., compounds of Formulas (I), (II), or (III)). After treatment for 24 hours, the protein abundance of a specific target was determined by measuring luminescence.
(§2) Cells were maintained in IMIDM with 10% FBS. Before the assay, cells were diluted with […] growth media (IMIDM+[…] media) and were seeded in a 384-well plate at a density of 10000 cells/well (for each cell line listed in Table 12). Each compound was prepared as a 10-point 3-fold serial dilution in DMSO with the top dose at a final concentration of 10 μM in the well. Unmodified K562 cells were added at the previously specified density with DMSO to serve as an assay baseline and positive control (PC) and DMSO only with the respective modified cell lines was added to the negative control (NC) columns. Final DMSO concentration was kept at or below 0.25%. Treated cell plates were placed in an incubator at 37° C. with 5% CO2 for 24 hours. After 24 hours, 25 μL of Complete HiBit Lytic reagent was added to each well at room temperature (e.g. one plate requiring 10 mL Lytic Buffer, 100 μL LgBiT Protein, 200 μL Lytic Substrate), shaken for 5 minutes at 600 RPM, then left to sit for 10 minutes for signal to stabilize before reading on a Spark Cyto plate reader (Tecan) with a 500 ms measurement time.
(§3) To determine compound effects on protein abundance of each target in Table 12, the percent response for each respective cell line was calculated at each compound concentration as follows:
(§4) For the normalized response at each concentration, a four-parameter logistical regression was fit to the data and the response was interpolated at the 50% value to determine a concentration for protein abundance at 50% (IC50) the untreated control.

HTT = experiment: HiBiT protein abundance assay, HTT; details: modified K562 cells
Method: as §1, §2, §3, §4

Target C = experiment: HiBiT protein abundance assay, Target C; details: Homo sapiens, K562, 24 h, modified K562 cells
Method: • Promega Nano-Glo HiBiT Lytic Detection System (cat #N3030) • Coming 384-well TC-treated microplates (cat #3570) • Synthego Engineered Cells Knock-In Clones
as §2, §3, §4

MYB [2] = experiment: Splicing RT-qPCR assay, MYB mRNA canonical junction (CJ) and alternative junction (AJ); details: for AC50: increase in AJ mRNA
Method: Compounds described herein were used to modulate RNA transcript abundance in cells. The expression of a target mRNA was measured by detecting the formation of an exon-exon junction in the canonical transcript (CJ). A compound mediated exon-inclusion event was detected by observing an increase in formation of a new junction with an alternative exon (AJ). Real-time qPCR assays were used to detect these splicing switches and interrogate the potency of various compounds towards different target genes. A high-throughput real time quantitative PCR (RT-qPCR) assay was developed to measure these two isoforms of the mRNA (CJ and AJ) for exemplary genes, such as HTT, SMN2, and MYB, together with a control housekeeping gene, GAPDH or GUSB or PPIA, used for normalization. Briefly, the A673 or K562 cell line was treated with various compounds described herein (e.g., compounds of Formula (I)). After treatment, the levels of the HTT, MYB, or SMN2 mRNA targets were determined from each sample of cell lysate by cDNA synthesis followed by qPCR.
The A673 cell line was cultured in DMEM with 10% FBS. Cells were diluted with full growth media and plated in a 96-well plate (15,000 cells in 100 ul media per well). The plate was incubated at 37° C. with 5% CO2 for 24 hours to allow cells to adhere. An 11-point 3-fold serial dilution of the compounds was made in DMSO then diluted in media in an intermediate plate. Compounds were transferred from the intermediate plate to the cell plate with the top dose at a final concentration of 10 uM in the well. Final DMSO concentration was kept at or below 0.25%. The cell plate was returned to the incubator at 37° C. with 5% CO2 for an additional 24 hours.
The K562 cell line was cultured in IMDM with 10% FBS. For K562, cells were diluted with full growth media and plated in either a 96-well plate (50,000 cells in 50 uL media per well) or a 384-well plate (8,000-40,000 cells in 45 uL media per well). An 11-point 3-fold serial dilution of the compounds were made in DMSO then diluted in media in an intermediate plate. Compound was transferred from the intermediate plate to the cell plate with the top dose at a final concentration of 10 uM in the well. Final DMSO concentration was kept at or below 0.25%. Final volume was 100 uL for 96-well plate and 50 uL for 384-well plate. The cell plate was then placed in an incubator at 37° C. with 5% CO2 for 24 hours.
The cells were then gently washed with 50 uL-100 uL cold PBS before proceeding to addition of lysis buffer. 30 uL-50 μL of room temperature lysis buffer with DNAse I (and optionally RNAsin) was added to each well. Cells were shaken/mixed thoroughly at room temperature for 5-10 minutes for lysis to take place and then 3 uL-5 μL of room temperature stop solution was added and wells were shaken/mixed again. After 2-5 minutes, the cell lysate plate was transferred to ice for RT-qPCR reaction setup. The lysates could also be frozen at −80° C. for later use.
In some cases, a direct lysis buffer was used. An appropriate volume of 3× lysis buffer (10 mM Tris, 150 mM NaCl, 1.5%-2.5% Igepal and 0.1-1 U/uL RNAsin, pH 7.4) was directly added to either K562 or A673 cells in media and mixed by pipetting 3 times. The plates were then incubated at room temperature with shaking/rocking for 20-50 minutes to allow for lysis to take place. After this time, the cell lysate plate was transferred to ice to set up for the RT-qPCR reactions. The lysates could also be frozen at −80° C. for later use.
To set up 10 uL RT-qPCR reactions, cell lysates were transferred to 384-well qPCR plates containing the master mix according to the table below. The plates were sealed, gently vortexed, and spun down before the run. The volumes were adjusted accordingly in some instances where the reaction was carried in 20 μL. The table below summarizes the components of the RT-qPCR reactions:
The RT-qPCR reaction was performed using a QuantStudio (ThermoFisher) under the following fast cycling conditions. […]

[3] = Homo sapiens, K562, 24 h, Table 13A
[4] = Homo sapiens, 24 h, decrease in CJ mRNA, A673 or K562 cells, 24 hours treatment, RT-qPCR, read-out: MYB CJ IC50
[5] = Homo sapiens, 24 h, A673 or K562 cells, 24 hours treatment, RT-qPCR
[6] = Homo sapiens, RT-qPCR panel, canonical junction mRNA, compound concentration having 50% response in CJ decrease, read-out: MYB IC50 (decrease in CJ mRNA levels)
[7] = Homo sapiens, K562, 24 h, Table 13B

SMILES | IC50 (MYB [1]; Table 13A) [µM] | IC50 (HTT; [3]) [µM] | IC50 (Target C; Table 13A) [µM] | also measured
C[C@@H]1C[C@H](N(C)c2ccc(-c3ccc(-c4cn[nH]c4)c4cn[nH]c34)nn2)CCN1 [Compound 101] | 1 to 10 | 1 to 10 | 1 to 10 | –
C[C@@H]1C[C@H](N(C)c2ccc(-c3ccc(-n4cccn4)c4cn[nH]c34)nn2)CCN1 [Compound 103] | 1 to 10 | 1 to 10 | 1 to 10 | –
C[C@@H]1C[C@@H](N(C)c2ccc(-c3ccc(-c4cn[nH]c4)c4cc[nH]c34)nn2)CCN1 [Compound 107] | 1 to 10 | 1 to 10 | 1 to 10 | –
C[C@H]1C[C@@H](N(C)c2ccc(-c3ccc(-c4cn[nH]c4)c4cc[nH]c34)nn2)CCN1 [Compound 108] | > 10 | > 10 | > 10 | IC50 (MYB [2]; [4]): > 10 µM; AC50 (MYB [2]; [5]): > 10 µM; IC50 (MYB [2]; [6]): > 10 µM
C[C@@H]1C[C@@H](N(C)c2ccc(-c3ccc(-n4cccn4)c4cc[nH]c34)nn2)CCN1 [Compound 110] | 1 to 10 | 1 to 10 | 1 to 10 | –
CN(c1ccc(-c2ccc(-c3cn[nH]c3)c3cc[nH]c23)nn1)[C@@H]1C[C@H]2CC[C@@H](C1)N2 [Compound 112] | 1 to 10 | 1 to 10 | 1 to 10 | IC50 (MYB [2]; [4]): 1 to 10 µM; AC50 (MYB [2]; [5]): 1 to 10 µM; IC50 (MYB [2]; [6]): 1 to 10 µM
CN(c1ccc(-c2ccc(-n3cccn3)c3cc[nH]c23)nn1)[C@@H]1C[C@H]2CC[C@@H](C1)N2 [Compound 113] | 1 to 10 | 1 to 10 | 1 to 10 | IC50 (MYB [2]; [4]): > 10 µM; AC50 (MYB [2]; [5]): > 10 µM; IC50 (MYB [2]; [6]): > 10 µM
C[C@@H]1C[C@H](N(C)c2ccc(-c3ccc(-c4cn[nH]c4)c4nn[nH]c34)nn2)CCN1 [Compound 115] | > 10 | > 10 | > 10 | IC50 (MYB [2]; [4]): > 10 µM; AC50 (MYB [2]; [5]): > 10 µM; IC50 (MYB [2]; [6]): > 10 µM
C[C@@H]1C[C@H](N(C)c2ccc(-c3ccc(-c4cn[nH]c4)c4c3NC(=O)C4)nn2)CCN1 [Compound 121] | > 10 | > 10 | > 10 | IC50 (MYB [2]; [4]): > 10 µM; AC50 (MYB [2]; [5]): > 10 µM; IC50 (MYB [2]; [6]): > 10 µM
CN(c1ccc(-c2ccc(-c3cn[nH]c3)c3c2NC(=O)C3)nn1)[C@@H]1C[C@H]2CC[C@@H](C1)N2 [Compound 123] | > 10 | > 10 | > 10 | –
CC1(C)CC(Oc2ccc(-c3ccc(-n4cccn4)c4cn[nH]c34)nn2)CC(C)(C)N1 [Compound 151] | 0.1 to 1 | 0.1 to 1 | 0.1 to 1 | –
c1cnn(-c2ccc(-c3ccc(O[C@@H]4C[C@H]5CC[C@@H](C4)N5)nn3)c3[nH]ncc23)c1 [Compound 152] | 0.1 to 1 | < 0.1 | < 0.1 | –
CN(c1ccc(-c2ccc(-c3cn[nH]c3)c3nc[nH]c23)nn1)[C@@H]1C[C@H]2CC[C@@H](C1)N2 [Compound 163] | > 10 | > 10 | > 10 | –
CN(c1ccc(-c2ccc(-c3cn(C)nn3)c3cn[nH]c23)nn1)[C@@H]1C[C@H]2CC[C@@H](C1)N2 [Compound 165] | 1 to 10 | 1 to 10 | 1 to 10 | –
c1nc2c(-c3cn[nH]c3)ccc(-c3ccc(O[C@@H]4C[C@H]5CCC[C@@H](C4)N5)nn3)c2s1 [Compound 209] | 0.1 to 1 | < 0.1 | < 0.1 | –
c1nc2c(-c3cn[nH]c3)ccc(-c3ccc(N4C[C@H]5CNC[C@H]5C4)nn3)c2s1 [Compound 282] | 1 to 10 | 1 to 10 | > 10 | –
[2H]C([2H])([2H])N(c1ccc(-c2ccc(-c3cn[nH]c3)c3cn[nH]c23)nn1)[C@@H]1C[C@H]2CC[C@@H](C1)N2 [Compound 299] | < 0.1 | < 0.1 | < 0.1 | –
Cc1cc(-c2ccc(-c3ccc(N(C)[C@@H]4C[C@H]5CC[C@@H](C4)N5)nn3)c3[nH]ncc23)cnn1 [Compound 383, (exo)-N-methyl-N-{6-[4-(6-methylpyridazin-4-yl)-1H-indazol-7-yl]pyridazin-3-yl}-8-azabicyclo[3.2.1]octan-3-amine] | 1 to 10 | 1 to 10 | 1 to 10 | –
c1nc2c(-c3cn[nH]c3)ccc(-c3ccc(N(C4CC4)[C@@H]4C[C@H]5CC[C@@H](C4)N5)nn3)c2s1 [Compound 389, (exo)-N-cyclopropyl-N-{6-[4-(1H-pyrazol-4-yl)-1,3-benzothiazol-7-yl]pyridazin-3-yl}-8-azabicyclo [3.2.1] octan-3-amine] | 0.1 to 1 | 0.1 to 1 | < 0.1 | –
c1nc2c(-c3cn[nH]c3)ccc(-c3cnc(N4CCN[C@H](C5CC5)C4)nn3)c2s1 [Compound 553] | – | – | – | IC50 (MYB [2]; RT-qPCR panel, canonical junction mRNA, compound concentration having 50% response in CJ decrease, read-out: MYB IC50 (decrease in CJ mRNA levels)): 1 to 10 µM; IC50 (HTT; Table 13A, 24 hours): 1 to 10 µM
CN(c1ccc(-c2ccc(-c3cn[nH]c3)c(=O)[nH]2)nn1)[C@@H]1C[C@H]2CC[C@@H](C1)N2 [Compound 904] | – | – | – | IC50 (MYB [1]; Table 13B): > 10 µM; IC50 (HTT; [7]): > 10 µM; IC50 (Target C; Table 13B): > 10 µM
CN(c1ccc(-c2ccc(-n3cccn3)c(=O)[nH]2)nn1)[C@@H]1C[C@H]2CC[C@@H](C1)N2 [Compound 905] | – | – | – | IC50 (MYB [1]; Table 13B): 1 to 10 µM; IC50 (HTT; [7]): 0.1 to 1 µM; IC50 (Target C; Table 13B): 0.1 to 1 µM

Source: patent US20240368163A1, “COMPOUNDS AND METHODS FOR MODULATING SPLICING” (REMIX THERAPEUTICS INC., priority 2021, published 2024)
